# Tests used:
# ERK1/2 [1] = assay: ERK-KTR live-cell ERK activity reporter in SH-SY5Y, […] h; assay type: cell-based
# ERK1/2 [2] = assay: ERK-KTR live-cell ERK activity reporter in HCT-116, […] h; assay type: cell-based
IC50 (ERK1/2 [1]),IC50 (ERK1/2 [2]),SMILES
75 nM,,"O=C(Nc1ccc2[nH]nc(-c3ccncc3)c2c1)[C@@H]1CCN(CC(=O)N2CCN(c3ccc(-c4ncccn4)cc3)CC2)C1 [SCH, SCH772984]"
,32 nM,"CC(C)Nc1cc(-c2c[nH]c(C(=O)N[C@H](CO)c3cccc(Cl)c3)c2)c(Cl)cn1 [Ulix, ulixertinib]"
